Measurements from the supplement of paper PMC10307832.

Assays:
Assay in all cases: relative viability (nuclei count vs DMSO), 5 days (fraction); higher = more cells survive
[1] = compound: CC1=CC(=NN1)NC2=CC(=NC(=N2)/C=C/C3=CC=CC=C3)N4CCN(CC4)C + CS(=O)(=O)CCNCc1ccc(-c2ccc3ncnc(Nc4ccc(OCc5cccc(F)c5)c(Cl)c4)c3c2)o1 [Lapatinib] (partner 2 µM)
Procedure, shortened: (§1)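 A single step with final 0.05% Triton X-100, 1% formaldehyde and 1 ug/ml Hoechst fixed the cells and stained nuclei 5 days after treatment. Lung cancer cell lines in 1536-well plates had been treated by pin tool the day after seeding with one drug alone or a fixed anchor-drug dose plus five library-drug doses (not always all listed) in √10 steps, and nuclei were counted on 4× images. Relative viability is the ratio of nuclei in treated wells to nuclei in vehicle wells, taken as the median of duplicate plates.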

[2] = compound: CC1=CC(=NN1)NC2=CC(=NC(=N2)/C=C/C3=CC=CC=C3)N4CCN(CC4)C + NC(=O)Nc1cc(-c2cccc(F)c2)sc1C(=O)N[C@H]1CCCNC1 [AZD7762] (partner 0.2 µM)
Procedure, shortened: as §1

[3] = compound: CC1=CC(=NN1)NC2=CC(=NC(=N2)/C=C/C3=CC=CC=C3)N4CCN(CC4)C + C[C@@H](Oc1cc(-c2cnn(C3CCNCC3)c2)cnc1N)c1c(Cl)ccc(F)c1Cl [Crizotinib] (partner 1 µM)
Procedure, shortened: as §1

Bortezomib + Crizotinib = compound: CC(C)C[C@H](NC(=O)[C@H](Cc1ccccc1)NC(=O)c1cnccn1)B(O)O [Bortezomib] + C[C@@H](Oc1cc(-c2cnn(C3CCNCC3)c2)cnc1N)c1c(Cl)ccc(F)c1Cl [Crizotinib] (partner 1 µM)
Procedure, shortened: as §1

Cell Line	relative viability ([1]; first compound 0.08 µM)	relative viability ([1]; first compound 0.253 µM)	relative viability ([1]; first compound 0.8 µM)	relative viability ([1]; first compound 2.53 µM)	relative viability ([1]; first compound 8 µM)	relative viability ([2]; first compound 0.08 µM)	relative viability ([2]; first compound 0.253 µM)	relative viability ([2]; first compound 0.8 µM)	relative viability ([2]; first compound 2.53 µM)	relative viability ([2]; first compound 8 µM)	relative viability ([3]; first compound 0.08 µM)	relative viability ([3]; first compound 0.253 µM)	relative viability ([3]; first compound 0.8 µM)	relative viability ([3]; first compound 2.53 µM)	relative viability ([3]; first compound 8 µM)	relative viability (Bortezomib + Crizotinib; first compound 0.0002 µM)	relative viability (Bortezomib + Crizotinib; first compound 0.000632 µM)	relative viability (Bortezomib + Crizotinib; first compound 0.002 µM)	relative viability (Bortezomib + Crizotinib; first compound 0.006325 µM)	relative viability (Bortezomib + Crizotinib; first compound 0.02 µM)
HCC-44	1.02	1.07	0.955	0.85	0.101	1.02	1.03	1.01	1.01	0.844	0.756	0.837	0.787	0.386	0.0992	0.816	0.842	0.839	0.116	0.153
HCC-78	0.673	1.04	0.87	0.68	1.27	0.628	0.746	0.868	0.401	0.249	0.365	0.372	0.352	0.32	0.146	0.365	0.328	0.299	0.148	0.174
HCC-366	0.928	1.13	0.996	0.0251	0.0162	0.247	0.302	0.245	0.0242	0.0179	0.6	0.628	0.357	0.0171	0.01	0.522	0.682	0.598	0.275	0.0107
IA-LM	–	0.885	0.961	0.638	0.113	–	–	–	–	–	–	0.899	0.884	0.38	0.0798	0.996	0.699	0.559	0.0382	0.0338
LCLC-103H	–	–	–	–	–	0.746	0.807	0.775	0.723	0.576	0.993	1.19	1.19	1.07	0.302	1.04	1.04	0.997	0.756	0.207
NCI-H441	–	–	–	–	–	1.17	1.06	1.1	0.728	0.152	0.689	0.794	0.457	0.254	0.15	0.584	0.716	0.29	0.135	0.129
NCI-H520	0.831	0.887	0.573	0.182	0.0952	–	–	–	–	–	0.798	0.778	0.473	0.251	0.0942	0.913	0.759	0.894	0.102	0.102
NCI-H522	–	–	–	–	–	0.859	0.934	0.933	0.516	0.587	–	–	–	–	–	–	–	–	–	–
NCI-H661	0.489	0.53	0.57	0.419	0.146	–	–	–	–	–	–	1.23	1.08	0.945	0.383	1.1	1.03	1.16	0.82	0.269
NCI-H1299	0.955	0.977	0.982	0.685	0.257	–	–	–	–	–	0.951	0.938	0.938	0.442	0.222	0.943	0.965	0.969	0.39	0.152
NCI-H1395	1.22	1.03	0.932	0.456	0.275	0.399	0.389	0.346	0.315	0.332	–	–	–	–	–	–	–	–	–	–
NCI-H1563	0.905	0.784	0.91	0.667	0.403	–	–	–	–	–	0.985	0.896	0.904	0.65	0.614	0.894	0.902	0.732	0.522	0.443
NCI-H1648	–	–	–	–	–	0.578	0.691	0.663	0.626	0.513	–	–	–	–	–	–	–	–	–	–
NCI-H1650	0.775	0.739	0.946	0.109	0.0756	–	–	–	–	–	1.07	1.05	0.63	0.192	0.109	0.973	0.93	0.158	0.124	0.147
NCI-H1793	0.528	0.566	0.656	0.1	0.0979	0.412	0.373	0.452	0.129	0.0904	–	–	–	–	–	–	–	–	–	–
NCI-H2009	0.907	0.628	1.03	0.451	0.189	–	–	–	–	–	1.06	0.94	1.02	0.534	0.22	0.992	1.06	0.956	0.329	0.0389
NCI-H2023	0.849	0.92	0.765	0.0727	0.0496	–	–	–	–	–	0.631	0.611	0.343	0.0794	0.0532	0.606	0.718	0.598	0.146	0.0674
NCI-H2228	1.16	0.85	0.685	0.103	0.0435	–	–	–	–	–	0.586	0.45	0.33	0.0992	0.0441	0.521	0.482	0.376	0.166	0.163
NCI-H2342	–	–	–	–	–	0.368	0.535	0.589	0.371	0.256	–	–	–	–	–	–	–	–	–	–
SK-LU-1	0.861	0.959	0.699	0.386	0.116	–	–	–	–	–	1.01	0.792	0.725	0.274	0.137	0.793	0.912	0.626	0.173	0.136
SK-MES-1	0.44	0.52	0.453	0.329	0.146	–	–	–	–	–	0.96	1.01	0.903	0.422	0.133	0.967	0.994	0.935	0.261	0.161
SW 900	–	–	–	–	–	0.534	0.526	0.649	0.314	0.104	–	–	–	–	–	–	–	–	–	–
SW 1573	1.08	1.34	1.11	0.906	0.134	–	–	–	–	–	0.886	0.829	0.604	0.194	0.1	0.851	0.82	0.631	0.181	0.0539
UMC-11	0.9	0.758	0.63	0.152	0.128	–	–	–	–	–	0.519	0.528	0.41	0.0737	0.062	0.503	0.63	0.591	0.225	0.0917
